Data set [1] relates to HBV replication in HepAD38 cells. Nature of the data set: Anti-HBV replication assay in HepAD38 cells (QPCR of extracellular HBV DNA). As to conditions: Hepatitis B virus, 168 h, 7 days incubation, extracellular HBV DNA by QPCR, read-out: Anti-HBV EC50. The data set is classed as cell-based, HBV (genotype D, serotype ayw). The procedure, abridged:
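HepAD38 cells (HepG2 carrying tet-repressible HBV genotype D genome) induced by tetracycline withdrawal, treated 7 days at 37 °C with compound ([…], 1-log10 dilutions). Extracellular HBV DNA quantified by QPCR against a standard curve, normalised to DMSO; EC50 from 4-parameter fit.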

The nature of data set [2]: In vitro cytotoxicity assay (MTT cell viability) in HepG2 cells. As to conditions: human. It counts as cell-based, human. The procedure, abridged:
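HepG2 cells incubated 7 days at 37 °C, 5% CO2 with compounds from 30 μM to 1.0 nM (8 half-log dilutions). Viability read as MTT formazan absorbance at 492 nm, normalised to vehicle controls; CC50 from 4-parameter non-linear regression.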

SMILES strings stand for the structures.

The results in this text go back to patent publication US20190375708A1 (VenatoRx Pharmaceuticals, Inc., priority 2018, published 2019).

Regarding `Cc1cc(NC(=O)c2c(C)c(C(=O)C(=O)NCc3cnc(N)s3)n(C)c2C)ccc1F` [Example 97, 5-(2-(((2-aminothiazol-5-yl)methyl)amino)-2-oxoacetyl)-N-(4-fluoro-3-methylphenyl)-1,2,4-trimethyl-1H-pyrrole-3-carboxamide], the EC50 in data set [1] is < 50 nM. In data set [2], the CC50 at 7 days was > 30 µM.
With `O=C(NC1(CO)CC1)C(=O)c1c(Cl)c(C(=O)Nc2ccc(F)c(F)c2)c2n1CCC2` [Example 561, 6-chloro-N-(3,4-difluorohphenyl)-5-(2-((1-(hydroxymethyl)cyclopropyl)amino)-2-oxoacetyl)-2,3-dihydro-1H-pyrrolizine-7-carboxamide], the EC50 in data set [1] was < 50 nM. Also, the CC50 at 7 days in data set [2] was > 30 µM.
On to `Cc1cc(NC(=O)c2c(Cl)c(C(=O)C(=O)N[C@@H](C)C(F)(F)F)n3c2CCCC3)cnc1F` [Example 731, (S)-2-chloro-N-(6-fluoro-5-methylpyridin-3-yl)-3-(2-oxo-2-((1,1,1-trifluoropropan-2-yl)amino)acetyl)-5,6,7,8-tetrahydroindolizine-1-carboxamide], for which, in data set [1], the EC50 is < 50 nM. Also, in data set [2], the CC50 at 7 days was 5 to 30 µM.
Taken in the same sequence, the figures for `Cc1cc(NC(=O)c2c(C)c(C(=O)C(=O)NCc3nnc(C(F)(F)F)[nH]3)n(C)c2C)ccc1F` [Example 244, N-(4-fluoro-3-methylphenyl)-1,2,4-trimethyl-5-(2-oxo-2-(((t-(trifluoromethyl)-4H-1,2,4-triazol-3-yl)methyl)amino)acetyl)-1H-pyrrole-3-carboxamide] were 50 to 499 nM and 5 to 30 µM.
Taken in the same sequence, the figures for `CNC(=O)[C@H](NC(=O)C(=O)c1c(C)c(C(=O)Nc2ccc(F)c(C)c2)c(C)n1C)C(C)(C)C` [Example 60, (R)-5-(2-((3,3-dimethyl-1-(methylamino)-1-oxobutan-2-yl)amino)-2-oxoacetyl)-N-(4-fluoro-3-methylphenyl)-1,2,4-trimethyl-1H-pyrrole-3-carboxamide] were < 50 nM and > 30 µM.
Consider `CC(C)(O)CNC(=O)C(=O)c1c(Cl)c(C(=O)Nc2ccc(F)c(Cl)c2)c2n1CCCC2` [Example 532, 2-chloro-N-(3-chloro-4-fluorophenyl)-3-(2-((2-hydroxy-2-methylpropyl)amino)-2-oxoacetyl)-5,6,7,8-tetrahydroindolizine-1-carboxamide], for which, in data set [1], the EC50 lay in the range of 500 to 1000 nM. This compound also showed a CC50 at 7 days in data set [2] of 0.5 to 4.99 µM.
As for `CC(=O)N1C[C@@H]2[C@H](C1)[C@H]2NC(=O)C(=O)c1c(C)c(C(=O)Nc2ccc(F)c(C)c2)c(C)n1C` [Example 643, 5-(2-(((1R,5S,6s)-3-acetyl-3-azabicyclo[3.1.0]hexan-6-yl)amino)-2-oxoacetyl)-N-(4-fluoro-3-methylphenyl)-1,2,4-trimethyl-1H-pyrrole-3-carboxamide], in data set [1], the EC50 fell in the range of 50 to 499 nM. Moreover, the CC50 at 7 days in data set [2] was > 30 µM.
For `Cc1c(C(=O)Nc2cccc(Cl)c2)c(C)n(C)c1C(=O)C(=O)NC1(C(F)(F)F)CCOCC1` [Example 604, N-(3-chlorophenyl)-1,2,4-trimethyl-5-(3-oxo-2-((4-(trifluoromethyl)tetrahydro-2H-pyran-4-yl)amino)acetyl)-1H-pyrrole-3-carboxamide], in that order: < 50 nM and 5 to 30 µM.
For `Cc1cc(NC(=O)c2c(C)c(C(=O)C(=O)NC(C)(C)C(F)(F)F)n(CCF)c2C)cnc1F` [Example 224, N-(6-ffluoro-5-methylpyridin-3-yl)-1-(2-fluoroethyl)-2,4-dimethyl-5-(2-oxo-2-((1,1,1-trifluoro-2-methylpropan-2-yl)amino)acetyl)-1H-pyrrole-3-carboxamide], in that order: 50 to 499 nM and > 30 µM.
Taken in the same sequence, the figures for `Cc1cc(NC(=O)c2c(Cl)c(C(=O)C(=O)NC(C)(C)CO)n(C)c2C)ccc1F` [Example 365, 4-chloro-N-(4-fluoro-3-methylphenyl)-5-(2-((1-hydroxy-2-methylpropan-2-yl)amino)-2-oxoacetyl)-1,2-dimethyl-1H-pyrrole-3-carboxamide] were < 50 nM and > 30 µM.
Turning to `Cc1cc(NC(=O)c2c(C)c(C(=O)C(=O)N[C@H]3C[C@@H](O)C3(C)C)n(C)c2C)ccc1F` [Example 302, N-(4-fluoro-3-methylphenyl)-5-(2-(((1S,3R)-3-hydroxy-2,2-dimethylcyclobutyl)amino)-2-oxoacetyl)-1,2,4-trimethyl-1H-pyrrole-3-carboxamide], in data set [1], the EC50 was < 50 nM. In addition, the CC50 at 7 days in data set [2] is > 30 µM.
For `Cc1nc2c(s1)C(NC(=O)C(=O)c1c(C)c(C(=O)Nc3ccnc(F)c3)c(C)n1C)CCC2` (stereo not drawn) [Example 607, N-(2-fluoropyridin-4-yl)-1,2,4-trimethyl-5-(2-((2-methyl-4,5,6,7-tetrahydrobenzo[d]thiazol-7-yl)amino)-2-oxoacetyl)-1H-pyrrole-3-carboxamide], in that order: < 50 nM and > 30 µM.
Taken in the same sequence, the figures for `Cc1cc(NC(=O)c2c(C)c(C(=O)C(=O)N[C@H](C(=O)O)[C@@H](C)O)n(C)c2C)ccc1F` [Example 34, (2-(4-((4-fluoro-3-methylphenyl)carbamoyl)-1,3,5-trimethyl-1H-pyrrol-2-yl)-2-oxoacetyl)-L-threonine] were > 1000 nM and > 30 µM.
`Cc1noc(C(NC(=O)C(=O)c2c(C)c(C(=O)Nc3ccc(F)c(C)c3)c(C)n2C)C2CCOCC2)n1` (stereo not drawn) [Example 85, N-(4-fluoro-3-methylphenyl)-1,2,4-trimethyl-5-(2-(((3-methyl-1,2,4-oxadiazol-5-yl)(tetrahydro-2H-pyran-4-yl)methyl)amino)-2-oxoacetyl)-1H-pyrrole-3-carboxamide]: in data set [1], the EC50 is < 50 nM. The CC50 at 7 days in data set [2] is > 30 µM.
Consider `CC(C)(C)NC(=O)C(=O)c1cc(C(=O)Nc2ccc(F)c(C#N)c2)c2n1CCCC2` [Example 392, 3-(2-(tert-butylamino)-2-oxoacetyl)-N-(3-cyano-4-fluorophenyl)-5,6,7,8-tetrahydroindolizine-1-carboxamide], for which the EC50 in data set [1] is > 1000 nM. The CC50 at 7 days in data set [2] was in the range of 5 to 30 µM.
As for `Cc1c(C(=O)Nc2cccc(Cl)c2)c(C)n(C)c1C(=O)C(=O)NC(C)(C)CN1CCOCC1` [Example 601, N-(3-chlorophenyl)-1,2,4-trimethyl-5-(2-((2-methyl-1-morpholinopropan-2-yl)amino)-2-oxoacetyl)-1H-pyrrole-3-carboxamide], the EC50 in data set [1] is < 50 nM. The CC50 at 7 days in data set [2] was > 30 µM.
Taken in the same sequence, the figures for `Cc1cc(NC(=O)c2c(C)c(C(=O)C(=O)N[C@H](CO)C(N)=O)n(C)c2C)ccc1F` [Example 54, (R)-5-(2-((1-amino-3-hydroxy-1-oxopropan-2-yl)amino)-2-oxoacetyl)-N-(4-fluoro-3-methylphenyl)-1,2,4-trimethyl-1H-pyrrole-3-carboxamide] were 50 to 499 nM and > 30 µM.
Taken in the same sequence, the figures for `Cc1cc(NC(=O)c2c(C)c(C(=O)C(=O)N[C@@H](C)C(C)(C)C)n(C)c2C)ccc1F` [Example 88, (S)-5-(2-((3,3-dimethylbutan-2-yl)amino)-2-oxoacetyl)-N-(4-fluoro-3-methylphenyl)-1,2,4-trimethyl-1H-pyrrole-3-carboxamide] were < 50 nM and 5 to 30 µM.
Take `Cc1cc(NC(=O)c2c(C)c(C(=O)C(=O)NCCN3CCOCC3)n(C)c2C)ccc1F` [Example 270, N-(4-fluoro-3-methylphenyl)-1,2,4-trimethyl-5-(2-((2-morpholinoethyl)amino)-2-oxoacetyl)-1H-pyrrole-3-carboxamide]: the EC50 in data set [1] is < 50 nM. In addition, the CC50 at 7 days in data set [2] was > 30 µM.
As for `Cc1cc(NC(=O)c2c(C)c(C(=O)C(=O)NCC(C)(C)O)n(C)c2Cl)ccc1F` [Example 388, 2-chloro-N-(4-fluoro-3-methylphenyl)-5-(2-((2-hydroxy-2-methylpropyl)amino)-2-oxoacetyl)-1,4-dimethyl-1H-pyrrole-3-carboxamide], the EC50 in data set [1] is > 1000 nM. In data set [2], this compound displayed a CC50 at 7 days of 5 to 30 µM.
Taken in the same sequence, the figures for `Cc1cc(NC(=O)c2c(C)c(C(=O)C(=O)N[C@@H]3CC[C@H](O)[C@@H]3O)n(C)c2C)ccc1F` [Example 152, 5-(2-(((1R,2R,3S)-2,3-dihydroxycyclopentyl)amino)-2-oxoacetyl)-N-(4-fluoro-3-methylphenyl)-1,2,4-trimethyl-1H-pyrrole-3-carboxamide] were < 50 nM and > 30 µM.
For `Cc1cc(NC(=O)c2c(C)c(C(=O)C(=O)N[C@H]3CC[C@](C)(O)CC3)n(C)c2C)ccc1F` [Example 213, N-(4-fluoro-3-methylphenyl)-5-(2-(((1r,4r)-4-hydroxy-4-methylcyclohexyl)amino)-2-oxoacetyl)-1,2,4-trimethyl-1H-pyrrole-3-carboxamide], in that order: < 50 nM and > 30 µM.
As to `Cc1cc(NC(=O)c2c(C)c(C(=O)C(=O)NC3C4CC5CC(C4)CC3C5)n(C)c2C)ccc1F` (stereo not drawn) [Example 17, 5-(2-(((1r,3r)-adamantan-2-yl)amino)-2-oxoacetyl)-N-(4-fluoro-3-methylphenyl)-1,2,4-trimethyl-1H-pyrrole-3-carboxamide], the EC50 in data set [1] is < 50 nM. This compound also returned a CC50 at 7 days in data set [2] of 0.5 to 4.99 µM.
Consider `Cc1cc(NC(=O)c2c(C)c(C(=O)C(=O)N[C@@H](C(N)=O)[C@H](C)O)n(C)c2C)ccc1F` [Example 44, 5-(2-(((2R,3S)-1-amino-3-hydroxy-1-oxobutan-2-yl)amino)-2-oxoacetyl)-N-(4-fluoro-3-methylphenyl)-1,2,4-trimethyl-1H-pyrrole-3-carboxamide], for which the EC50 in data set [1] was < 50 nM. Besides, in data set [2], the CC50 at 7 days is > 30 µM.

A word on the EC50: it is the concentration needed to bring the measured effect to its halfway point. By CC50 is commonly meant the concentration giving 50% cytotoxicity. The low end stands for harm at low concentration, the high end for better tolerance by the cells.
